Tests used:
[1] = system: Type 1 (BB/Wor) diabetic rats; assay: single luteolin treatment in chronic Type I diabetic rats, blood glucose 0-6 hours; type: in vivo, rat; settings: for average blood glucose at 6 hours: from 415 (insulin) and 445 (luteolin) mg/dl at time 0; for decrease in blood glucose levels: within 6 hours, luteolin 3 mg intragastrically, PZI insulin 0.9-1.2 mU/day subcutaneous
Protocol: Animal tests of luteolin were made at BRM (Biomedical Research Models, Inc.) an East coast contract research organization (CRO) that specializes in diabetes research. […] Historically, these strains have been widely used in similar pre-clinical studies to predict anti-diabetogenic efficacy. […] In this study, lean male diabetics were randomly assigned to 3 treatment groups (3-4 rats/group). […] Blood glucose was evaluated from time 0 through 6 hours (11 AM-5 PM). […] This response was fully consistent with prior work in the Type I rat model. […] In comparison, there was no reduction in the hyperglycemic state in the control group over the same interval (414 to 404 mg/dl).

diabetics = assay: Brickellia flavonoids administered to diabetics; type: in vivo; settings: for results in diabetics compared with the extract: flavonoids extracted and fractionated from Brickellia californica; for effectiveness in treating diabetes: alone or in combination
From the text: The flavonoids specifically used were dihydrokaemferol and apigenin, a flavone. […] I have discovered an underlying “molecular switch” that controls both forms of diabetes. This “switch” can be operated by luteolin and similar flavonoids.

[2] = target: Kv1.3 voltage gated potassium channel (Homo sapiens, UniProt P22001); assay: patch clamp analysis of Kv1.3 block; type: cell-based
From the text: When the toxic CD8^− Natural Killer Cells combines with the CD4^− Helper T Cells at cystein they electronically stimulate calmodulin. This voltage sensor activates one of the 80+ super gene channels necessary for the activation of the CD4^− and CD8^− T Cells, Kv1.3 a voltage gated potassium channel. If this channel is not activated by calmodulin the T-Cells remain in their resting states. […] There are 200 pores in a resting Beta cell. When cell potential reaches 1.3 nVolts, the Kv1.3, voltage gated potassium channel opens to expose the tyrosine kinase tails. These kinases when stimulated turn on the ras-Oncogene, a cancer promoter, which turns on Protein Kinase C, another tumor promoter. These drive the Nuclear Factors of the Activated T-Cell, such as cAMP; which stimulates the susceptibility genes associated with diabetes such as those on chromosome 19q13.3. These in turn produce InterLeukin-2, an inflammatory cytokine messenger signaling further T-Cell proliferation. When CD8^− cells sample the external receptors of the Beta cell, they find and bind to laminin to sites, such as AGM1, and releases InterLeukin-2 upon calcium loading. This inflammatory cytokine causes cell activation and suppression of insulin release. […]

[3] = system: Type II (BBZDR/Wor) diabetic rats; assay: luteolin dose study in chronic Type 2 diabetic rats over 24 hr; type: in vivo, rat
Protocol: Animal tests of luteolin were made at BRM (Biomedical Research Models, Inc.) an East coast contract research organization (CRO) that specializes in diabetes research. […] Historically, these strains have been widely used in similar pre-clinical studies to predict anti-diabetogenic efficacy.
First, a 24 hour baseline study was performed on 9 chronic Type 2 rats. We found no significant change in hyperglycemia over this 24 hour period of analysis in the diabetic rats. […] Blood glucose analysis was evaluated every 2 hours.
Unfortunately, that animal died sometime before the 24 hr time point as a result of an accidental perforation of the esophagus during the administration of drug.

[4] = system: Type II (BBZDR/Wor) diabetic rats; assay: extended (two weeks) luteolin treatment of obese Type II diabetic rats; type: in vivo, rat
From the text: In the next experiment we elected to provide these same rats with a standardized dose over an extended period of treatment. […] The data were expressed for each rat as a percentage change in blood glucose level relative to each individual pre-treatment level.

[5] = system: diabetic test animals (rats and mice); assay: Brickellia extract and flavonoids in diabetic test animals; type: in vivo
Protocol: It is believed that the Brickellia californica extract includes the flavonoids dihydrokaemferol, apigenin, luteolin, myricetin and quercetin. Further, the many other species of Brickellia contain these, or similar flavonoids, albeit in different proportions, and should also be effective in treatment of diabetes. Experiments with diabetic test animals (rats and mice) were carried out. […] Further, the administration of synthetic versions of the Brickellia flavonoids were also effective at lowering glucose levels.

Sequence of Kv1.3 voltage gated potassium channel (P22001 whole entry): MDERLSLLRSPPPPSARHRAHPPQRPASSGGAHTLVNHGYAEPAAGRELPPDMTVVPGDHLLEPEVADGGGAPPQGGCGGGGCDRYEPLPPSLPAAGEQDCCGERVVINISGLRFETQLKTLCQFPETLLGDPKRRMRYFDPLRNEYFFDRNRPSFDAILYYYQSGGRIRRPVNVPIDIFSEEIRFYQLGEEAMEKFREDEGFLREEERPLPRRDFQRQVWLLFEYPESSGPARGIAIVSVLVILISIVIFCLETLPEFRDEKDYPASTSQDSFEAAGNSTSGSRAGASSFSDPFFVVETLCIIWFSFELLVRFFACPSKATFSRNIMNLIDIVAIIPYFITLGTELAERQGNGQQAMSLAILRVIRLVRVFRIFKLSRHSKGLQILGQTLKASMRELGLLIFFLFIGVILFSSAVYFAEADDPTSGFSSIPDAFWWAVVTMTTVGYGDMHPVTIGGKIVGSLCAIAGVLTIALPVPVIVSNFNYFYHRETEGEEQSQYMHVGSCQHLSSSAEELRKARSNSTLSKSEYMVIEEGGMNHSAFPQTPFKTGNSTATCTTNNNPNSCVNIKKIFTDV

In the case of insulin [reference compound], the “average blood glucose at 6 hours” value [1] is reported as 112 mg/dL and the “decrease in blood glucose levels” value [1] is reported as 75%.
`O=c1cc(-c2ccc(O)cc2)oc2cc(O)cc(O)c12` [apigenin] was tested, and the “results in diabetics compared with the extract” value (diabetics) was “results similar to those produced by the extract”.
`O=C1c2c(O)cc(O)cc2O[C@H](c2ccc(O)cc2)[C@H]1O` [dihydrokaemferol] was tested, and the “results in diabetics compared with the extract” value (diabetics) was “results similar to those produced by the extract”.
With `O=c1c(O)c(-c2cc(O)c(O)c(O)c2)oc2cc(O)cc(O)c12` [myricetin] the “effectiveness in treating diabetes” value (diabetics) was “effective in treating diabetes”.
With `O=c1cc(-c2ccc(O)c(O)c2)oc2cc(O)cc(O)c12` [luteolin] the “block of Kv1.3 channel at 100 nM” value ([2]; luteolin tested at 100 nM, cell remained in its resting state) was “blocked completely”, the “block of Kv1.3 channel” value ([2]; patch clamp analysis) was “blocks this channel” and the “average blood glucose at 6 hours” value [1] was 307 mg/dL. The “decrease in blood glucose levels” value [1] was 31%, the “decrease in blood glucose levels, 50 mg three times a day” value ([3]; Type 2 diabetic rats, 150 mg total, within 24 hr) was 10.2% and the “drop in blood glucose, 150 mg three times a day” value ([3]; Type 2 diabetic rats, 450 mg total, 24 hr) was 22.9%. The “decrease in glucose, 250 mg three times a day” value ([3]; Type 2 diabetic rats, 750 mg total, 24 hr) was 27.7%, the “reduction of hyperglycemia over all doses” value ([3]; Type II diabetic rats, over a 24 hour period, dose-dependent) was 10-28% and the “reduction of blood glucose in one rat” value ([3]; one Type 2 rat, intermediate dose (150 mg), within 18 hr) was 52%. For the same compound, the “blood glucose of one rat after treatment” value ([3]; one Type 2 rat, intermediate dose, from 777 mg/dl, within 18 hr) was 372 mg/dL, the “average drop of blood glucose levels” value ([4]; Type II rats, 50 mg 3x/day for two weeks) was 41.1% and the “average blood glucose after treatment” value ([4]; Type II rats, 50 mg 3x/day for two weeks, from 660 mg/dl) was 389 mg/dL. For the same compound, the “increase in blood glucose in one rat” value ([4]; one rat with esophageal fistula that likely prohibited effective dosing, 50 mg 3x/day two weeks) was 9.3%, the “rank among treatments involving a single flavonoid” value [5] was “the most effective agent” and the “effectiveness in treating diabetes” value (diabetics) was “effective in treating diabetes”.
